Assay results published in PubChem BioAssay (NCI).
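Where inhibition never reached the appropriate level, the endpoint shown equals the highest concentration tested. Otherwise, values were interpolated linearly from a five-concentration, 48-hour dose response in 96-well plates. GI50 marks 50% less growth. TGI denotes the concentration required for complete inhibition of growth.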

Columns and labels:
Assay in all cases: growth of human tumour cells (NCI), 48 h; in the data active = GI50 below about 0.43 µM; inactive = the rest
SNB-75 CNS = system: SNB-75 CNS
SK-MEL-28 melanoma = system: SK-MEL-28 melanoma
RPMI-8226 leukemia = system: RPMI-8226 leukemia
SK-MEL-5 melanoma = system: SK-MEL-5 melanoma
KM20L2 colon = system: KM20L2 colon
OVCAR-4 ovarian = system: OVCAR-4 ovarian
HCT-15 colon = system: HCT-15 colon
MALME-3M melanoma = system: MALME-3M melanoma
HOP-62 NSCLC = system: HOP-62 NSCLC
XF 498 CNS = system: XF 498 CNS
HL-60(TB) leukemia = system: HL-60(TB) leukemia
NCI-H23 lung = system: NCI-H23 lung
SK-MEL-2 melanoma = system: SK-MEL-2 melanoma
OVCAR-3 ovarian = system: OVCAR-3 ovarian
MOLT-4 leukemia = system: MOLT-4 leukemia
OVCAR-8 ovarian = system: OVCAR-8 ovarian
DMS 273 small cell lung = system: DMS 273 small cell lung
NCI-H522 lung = system: NCI-H522 lung
NCI-H460 lung = system: NCI-H460 lung
DLD-1 colon = system: DLD-1 colon
M14 melanoma = system: M14 melanoma
LXFL 529 NSCLC = system: LXFL 529 NSCLC
HCC-2998 colon = system: HCC-2998 colon
CCRF-CEM leukemia = system: CCRF-CEM leukemia
NCI-H226 lung = system: NCI-H226 lung
SF-539 CNS = system: SF-539 CNS
786-0 renal = system: 786-0 renal
DMS 114 small cell lung = system: DMS 114 small cell lung
RXF 393 renal = system: RXF 393 renal
SN12C renal = system: SN12C renal
OVCAR-5 ovarian = system: OVCAR-5 ovarian
IGROV1 ovarian = system: IGROV1 ovarian
SK-OV-3 ovarian = system: SK-OV-3 ovarian
UO-31 renal = system: UO-31 renal
HT29 colon = system: HT29 colon
HOP-18 NSCLC = system: HOP-18 NSCLC
A498 renal = system: A498 renal
EKVX NSCLC = system: EKVX NSCLC
COLO 205 colon = system: COLO 205 colon
TK-10 renal = system: TK-10 renal
A549 NSCLC = system: A549 NSCLC
LOX IMVI melanoma = system: LOX IMVI melanoma
SNB-78 CNS = system: SNB-78 CNS
UACC-62 melanoma = system: UACC-62 melanoma
SF-295 CNS = system: SF-295 CNS
SR leukemia = system: SR leukemia
SF-268 CNS = system: SF-268 CNS
UACC-257 melanoma = system: UACC-257 melanoma
ACHN renal = system: ACHN renal
U251 CNS = system: U251 CNS
M19-MEL melanoma = system: M19-MEL melanoma
KM12 colon = system: KM12 colon
SW-620 colon = system: SW-620 colon
K-562 leukemia = system: K-562 leukemia
HCT-116 colon = system: HCT-116 colon
SNB-19 CNS = system: SNB-19 CNS
HOP-92 NSCLC = system: HOP-92 NSCLC
CAKI-1 renal = system: CAKI-1 renal

O=C(O)CCC(=O)Oc1ccc(O)c2c1CCCC2=O
> 100 µM: TGI (SNB-75 CNS) | TGI (SK-MEL-28 melanoma) | TGI (RPMI-8226 leukemia) | TGI (SK-MEL-5 melanoma) | TGI (KM20L2 colon) | TGI (OVCAR-4 ovarian) | TGI (HCT-15 colon) | TGI (MALME-3M melanoma) | TGI (HOP-62 NSCLC) | TGI (HL-60(TB) leukemia) | TGI (NCI-H23 lung) | TGI (SK-MEL-2 melanoma) | TGI (OVCAR-3 ovarian) | TGI (MOLT-4 leukemia) | TGI (OVCAR-8 ovarian) | TGI (DMS 273 small cell lung) | TGI (NCI-H522 lung) | TGI (NCI-H460 lung) | TGI (DLD-1 colon) | TGI (M14 melanoma) | TGI (LXFL 529 NSCLC) | TGI (HCC-2998 colon) | TGI (CCRF-CEM leukemia) | TGI (NCI-H226 lung) | TGI (SF-539 CNS) | TGI (786-0 renal) | TGI (DMS 114 small cell lung) | TGI (RXF 393 renal) | TGI (SN12C renal) | TGI (OVCAR-5 ovarian) | TGI (IGROV1 ovarian) | TGI (SK-OV-3 ovarian) | TGI (UO-31 renal) | TGI (HT29 colon) | TGI (HOP-18 NSCLC) | TGI (A498 renal) | TGI (EKVX NSCLC) | TGI (COLO 205 colon) | TGI (TK-10 renal) | TGI (A549 NSCLC) | TGI (LOX IMVI melanoma) | TGI (SNB-78 CNS) | TGI (UACC-62 melanoma) | TGI (SF-295 CNS) | TGI (SR leukemia) | TGI (SF-268 CNS) | TGI (UACC-257 melanoma) | TGI (ACHN renal) | TGI (U251 CNS) | TGI (M19-MEL melanoma) | TGI (KM12 colon) | TGI (SW-620 colon) | TGI (K-562 leukemia) | TGI (HCT-116 colon) | TGI (SNB-19 CNS)
5.84 µM: TGI (XF 498 CNS)

CCC[CH2][Sn]1([CH2]CCC)[O]C(=O)CN=C(C)c2ccccc2[O]1
2.34 µM: TGI (SNB-75 CNS) | TGI (SN12C renal)
11.4 µM: TGI (A498 renal)
2.1 µM: TGI (CAKI-1 renal)
2.46 µM: TGI (HCT-15 colon)
2.8 µM: TGI (RPMI-8226 leukemia)
9.62 µM: TGI (A549 NSCLC)
0.655 µM: TGI (DMS 114 small cell lung)
1.59 µM: TGI (SW-620 colon)
3.19 µM: TGI (XF 498 CNS)
2.83 µM: TGI (OVCAR-8 ovarian)
3.62 µM: TGI (OVCAR-4 ovarian)
4.74 µM: TGI (K-562 leukemia)
1.84 µM: TGI (LOX IMVI melanoma)
2.63 µM: TGI (UO-31 renal)
2.21 µM: TGI (UACC-62 melanoma)
2.86 µM: TGI (SF-295 CNS)
1.7 µM: TGI (SNB-78 CNS)
2.73 µM: TGI (OVCAR-3 ovarian)
2.18 µM: TGI (HOP-92 NSCLC)
2.85 µM: TGI (HOP-18 NSCLC)
1.28 µM: TGI (LXFL 529 NSCLC)
2.3 µM: TGI (MALME-3M melanoma) | TGI (U251 CNS)
2.13 µM: TGI (ACHN renal)
active: GI50 (NCI-H522 lung) 0.179 µM | GI50 (LXFL 529 NSCLC) 0.254 µM | GI50 (DMS 114 small cell lung) 0.227 µM | GI50 (RXF 393 renal) 0.222 µM | GI50 (SNB-78 CNS) 0.312 µM | GI50 (SF-268 CNS) 0.306 µM | GI50 (SW-620 colon) 0.413 µM | GI50 (K-562 leukemia) 0.289 µM
2.11 µM: TGI (SK-MEL-28 melanoma)
1.55 µM: TGI (SK-MEL-2 melanoma)
0.369 µM: TGI (NCI-H522 lung)
1.8 µM: TGI (M19-MEL melanoma)
2.29 µM: TGI (SNB-19 CNS)
3.55 µM: TGI (NCI-H460 lung)
2.67 µM: TGI (M14 melanoma)
1.65 µM: TGI (SF-268 CNS)
0.786 µM: TGI (RXF 393 renal)
2.74 µM: TGI (DMS 273 small cell lung)
2.58 µM: TGI (786-0 renal) | TGI (KM12 colon)
inactive: GI50 (SNB-75 CNS) 0.735 µM | GI50 (SK-MEL-28 melanoma) 0.868 µM | GI50 (RPMI-8226 leukemia) 0.468 µM | GI50 (SK-MEL-5 melanoma) 2.55 µM | GI50 (KM20L2 colon) 1.55 µM | GI50 (HOP-92 NSCLC) 0.978 µM | GI50 (OVCAR-4 ovarian) 1.73 µM | GI50 (HCT-15 colon) 1.15 µM | GI50 (MALME-3M melanoma) 1.04 µM | GI50 (HOP-62 NSCLC) 5.21 µM | GI50 (XF 498 CNS) 1.74 µM | GI50 (NCI-H23 lung) 0.429 µM | GI50 (SK-MEL-2 melanoma) 0.5 µM | GI50 (OVCAR-3 ovarian) 1.4 µM | GI50 (MOLT-4 leukemia) 0.74 µM | GI50 (OVCAR-8 ovarian) 1.39 µM | GI50 (DMS 273 small cell lung) 1.39 µM | GI50 (NCI-H460 lung) 1.79 µM | GI50 (CAKI-1 renal) 0.534 µM | GI50 (DLD-1 colon) 1.94 µM | GI50 (M14 melanoma) 1.37 µM | GI50 (HCC-2998 colon) 1.53 µM | GI50 (SF-539 CNS) 2.78 µM | GI50 (786-0 renal) 1.29 µM | GI50 (SN12C renal) 1.13 µM | GI50 (OVCAR-5 ovarian) 1.81 µM | GI50 (IGROV1 ovarian) 2.83 µM | GI50 (SK-OV-3 ovarian) 2.37 µM | GI50 (UO-31 renal) 1.32 µM | GI50 (HT29 colon) 1.66 µM | GI50 (HOP-18 NSCLC) 1.5 µM | GI50 (A498 renal) 2.72 µM | GI50 (EKVX NSCLC) 1.48 µM | GI50 (COLO 205 colon) 0.569 µM | GI50 (TK-10 renal) 0.586 µM | GI50 (A549 NSCLC) 3 µM | GI50 (LOX IMVI melanoma) 0.533 µM | GI50 (UACC-62 melanoma) 0.922 µM | GI50 (SF-295 CNS) 1.48 µM | GI50 (UACC-257 melanoma) 0.955 µM | GI50 (ACHN renal) 0.881 µM | GI50 (U251 CNS) 1.1 µM | GI50 (M19-MEL melanoma) 0.528 µM | GI50 (KM12 colon) 1.27 µM | GI50 (HCT-116 colon) 1.55 µM | GI50 (SNB-19 CNS) 1.09 µM
3.24 µM: TGI (OVCAR-5 ovarian)
3.1 µM: TGI (HT29 colon)
4.14 µM: TGI (SK-OV-3 ovarian)
> 100 µM: TGI (SK-MEL-5 melanoma) | TGI (HOP-62 NSCLC) | TGI (DLD-1 colon) | TGI (SF-539 CNS) | TGI (IGROV1 ovarian)
2.92 µM: TGI (HCC-2998 colon) | TGI (HCT-116 colon)
1.78 µM: TGI (NCI-H23 lung) | TGI (TK-10 renal)
1.9 µM: TGI (COLO 205 colon)
2.97 µM: TGI (KM20L2 colon)
2.2 µM: TGI (UACC-257 melanoma)
5.04 µM: TGI (MOLT-4 leukemia)
2.99 µM: TGI (EKVX NSCLC)
